From publication doi:10.1101/2024.05.16.594348v1 (bioRxiv, 2024)
Where a SMILES comes first, the peptide text is derived from it. [ ]: non-standard residue; d: D form. βAla = NCCC(=O)O

Experiments:
[1] = test system: hMSCs; experiment: Peptide degradation in media on top of cells; type: in vitro ADME, human; settings: 24 h, LCMS
[2] = test system: hUVECs; experiment: Peptide degradation in media on top of cells; type: in vitro ADME, human; settings: 24 h, LCMS
[3] = test system: hMSCs; experiment: Peptide degradation in Cells condition with MMP-14 inhibitor, hMSCs; type: in vitro ADME, human; settings: 50 μM peptide, MMP-14 inhibitor NSC 405020, 24 h, LCMS; text to Fig. 4
[4] = test system: hUVECs; experiment: Viability of hUVECs in peptide-crosslinked PEG hydrogels; type: cell-based, human
[5] = Peptide degradation in cell-free conditioned media; type: in vitro ADME, human; settings: initial peptide library, 24 h, LCMS, text to Fig. 2B
[6] = Peptide degradation in cell-free conditioned media; type: in vitro ADME, human; settings: initial peptide library, 24 h, LCMS, text to Fig. 2B; remark: listed apart in the source
[7] = test system: hMSCs; experiment: Cell spreading of hMSCs in peptide-crosslinked PEG hydrogels; type: cell-based, human; settings: PEG hydrogels containing hMSCs or hUVECs at 20 million cells/mL, up to Day 7
[8] = individually synthesized peptides, 50 μM, text to Fig. 4
[9] = initial peptide library, text to Fig. 2B

Compound | degradation in the cells condition, hMSCs [1, 8] [%] | degradation in the cells condition, hUVECs [2, 8] [%] | degradation in the cells condition, hMSCs [1, 9] [%] | degradation in the cells condition, hUVECs [2, 9] [%] | degradation in the Cells + Inhibitor condition, hMSCs [3] [%] | hUVEC cell number after seven days in crosslinked gels, difference ([4]; PanMMP compared with the KLVAD peptides, DNA quantification, Fig. 6D) | hUVEC metabolic activity after seven days in crosslinked gels ([4]; compared with the KLVAD peptides, alamarBlue, Fig. 6C) | degradation in media condition, hMSC [5] | degradation in media condition, hUVEC [6] | cytotoxicity of hydrogels crosslinked by the peptide [7]
CSCC[C@H](NC(=O)[C@H](CC(C)C)NC(=O)[C@H](CC(=O)O)NC(=O)[C@H](C)NC(=O)[C@@H](NC(=O)[C@H](CC(C)C)NC(=O)[C@H](CCCCN)NC(=O)CCNC(C)=O)C(C)C)C(=O)N[C@@H](C)C(=O)N[C@@H](CO)C(=O)N[C@@H](C)C(=O)N[C@@H](CCC(=O)O)C(=O)NCCC(N)=O [KLVAD-LM] (Ac-[βAla]KLVADLMASAE[βAla]-NH2) | 54 | 16 | – | – | – | – | – | – | – | –
GPQGIWGQ [PanMMP, reference compound] | 65 | – | 61 | 31 | 22 | not significant | higher metabolic activity | – | – | –
KLVADNYASAE | 22 | 4 | 30 | 8 | – | – | – | less than 3% | less than 3% | cytotoxic
